Results as given in patent US11458189B2, “Cytoprotective drugs” (BALMES TRANSPLANTATION, priority 2017, dated 2022).

Tested on: Sprague Dawley rats
Assay: Survival in acute renal failure model (unilateral renal ischemia-reperfusion with contralateral nephrectomy)
Type: in vivo, rat
Settings: Allopurinol 3 mg/kg single iv injection 60 min before ischemia; up to 7 days after reperfusion; control group 29%
Method: The protocol is similar to the one described by Narayan P et al, Am J Physiol Renal Physiol, 311(2):F352-61, 2016 and was approved by an ethics committee. In summary, general anesthesia is induced in male Sprague Dawley rats (250-300 g) using sodium pentobarbital (60 mg/kg, ip) instead of ketamine/xylazine in the protocol described by Narayan P et al, Am J Physiol Renal Physiol, 311 (2): F352-61, 2016. A skin incision is made on the dorsal surface and the left kidney is exposed by incisions on the flank. The left renal pedicle is then isolated and clamped for 60 minutes using atraumatic vascular clamps. The kidneys are replaced in the abdominal cavity to maintain temperature and the incision is covered with gauze soaked in 0.9% saline. After the ischemia time (60 minutes), the clamps are released to begin reperfusion. Reperfusion is monitored (kidney color change) for 1 to 2 minutes and physiological saline (1 mL) is administered to prevent dehydration. Next, a right kidney nephrectomy is performed and the incisions are closed with sutures. The animals are kept at approximately 37° C. using a thermoregulated system during the operation. Buprenorphine (0.2 mg/kg sc) is administered before the animals are returned to their cages and once a day until 4 days after reperfusion. […]
The compounds Micafungin (0.25 mg/kg), Anidulafungin (0.35 mg/kg) or the combination of the compounds Micafungin (0.25 mg/kg) and Allopurinol (3 mg/kg) are administered solubilized in physiological saline as a single intravenous injection into the tail vein 60 (±15) minutes before the onset of ischemia. The volume of administration of the compounds is determined on the basis of the body weight (2 mL/kg) of each animal. […]
For each experiment the curve of the number of surviving animals versus the number of days post-ischemia-reperfusion (Kaplan-Meier curve) is shown. The x-axis is graduated from the first day =0 to the seventh day =6 The y-axis is graduated from 0% to 100% of the initial population of the analyzed group. […]

## Oc1ncnc2[nH]ncc12 [Allopurinol]
  Surviving animals at end of Kaplan-Meier curve (% of initial population of the group): 63%
